From patent publication US20260132158A1, “PHENYL OXY AMIDE KINASE INHIBITORS” (THE TRANSLATIONAL GENOMICS RESEARCH INSTITUTE, priority 2022, published 2026)

Target: T1, RON Kinase (Homo sapiens, UniProt Q04912)
T1 construct: purchased Promega V8071
Assay: RON Kinase ADP Glo Assay
Type: biochemical
Settings: ratio cMET IC50 / RON IC50
Experimental: RON Kinase ADP Glo Assay • Assay Buffer: 40 mM Tris-HCl, pH7.5, 20 mM MgCl2, 0.1 mg/mL BSA • RON Kinase+ADP-Glo™ Assay (Promega #: V8071) • Substrate: […] Axltide • Enzyme: 100 ng/μL RON Kinase • ATP: 10 mM • ADP-Glo™ Reagent • Kinase Detection Reagent • 384-well white assay plates Kinase assay was done by following instructions from the kit. Briefly, a ten-point serial dilution of compound was prepared at 5× in assay buffer with the final assay concentrations starting at 300 nM, 100 nM, 30 nM, 10 nM . . . 0 nM. Enzyme, substrate, and ATP were used at 25 ng, 2000 ng, and 25 µM, respectively. The assay plate was set up by mixing the components in a total reaction volume of 10 μL per well. The plate was centrifuged gently for 10 seconds and incubated at room temperature (RT) for 60 minutes in the dark. The ADP-Glo Reagent and kinase detection reagent were added and incubated as recommended. The reaction was quantified by measuring luminescence on the Perkin Elmer Envision plate reader.

T1 sequence (Q04912 25-1400): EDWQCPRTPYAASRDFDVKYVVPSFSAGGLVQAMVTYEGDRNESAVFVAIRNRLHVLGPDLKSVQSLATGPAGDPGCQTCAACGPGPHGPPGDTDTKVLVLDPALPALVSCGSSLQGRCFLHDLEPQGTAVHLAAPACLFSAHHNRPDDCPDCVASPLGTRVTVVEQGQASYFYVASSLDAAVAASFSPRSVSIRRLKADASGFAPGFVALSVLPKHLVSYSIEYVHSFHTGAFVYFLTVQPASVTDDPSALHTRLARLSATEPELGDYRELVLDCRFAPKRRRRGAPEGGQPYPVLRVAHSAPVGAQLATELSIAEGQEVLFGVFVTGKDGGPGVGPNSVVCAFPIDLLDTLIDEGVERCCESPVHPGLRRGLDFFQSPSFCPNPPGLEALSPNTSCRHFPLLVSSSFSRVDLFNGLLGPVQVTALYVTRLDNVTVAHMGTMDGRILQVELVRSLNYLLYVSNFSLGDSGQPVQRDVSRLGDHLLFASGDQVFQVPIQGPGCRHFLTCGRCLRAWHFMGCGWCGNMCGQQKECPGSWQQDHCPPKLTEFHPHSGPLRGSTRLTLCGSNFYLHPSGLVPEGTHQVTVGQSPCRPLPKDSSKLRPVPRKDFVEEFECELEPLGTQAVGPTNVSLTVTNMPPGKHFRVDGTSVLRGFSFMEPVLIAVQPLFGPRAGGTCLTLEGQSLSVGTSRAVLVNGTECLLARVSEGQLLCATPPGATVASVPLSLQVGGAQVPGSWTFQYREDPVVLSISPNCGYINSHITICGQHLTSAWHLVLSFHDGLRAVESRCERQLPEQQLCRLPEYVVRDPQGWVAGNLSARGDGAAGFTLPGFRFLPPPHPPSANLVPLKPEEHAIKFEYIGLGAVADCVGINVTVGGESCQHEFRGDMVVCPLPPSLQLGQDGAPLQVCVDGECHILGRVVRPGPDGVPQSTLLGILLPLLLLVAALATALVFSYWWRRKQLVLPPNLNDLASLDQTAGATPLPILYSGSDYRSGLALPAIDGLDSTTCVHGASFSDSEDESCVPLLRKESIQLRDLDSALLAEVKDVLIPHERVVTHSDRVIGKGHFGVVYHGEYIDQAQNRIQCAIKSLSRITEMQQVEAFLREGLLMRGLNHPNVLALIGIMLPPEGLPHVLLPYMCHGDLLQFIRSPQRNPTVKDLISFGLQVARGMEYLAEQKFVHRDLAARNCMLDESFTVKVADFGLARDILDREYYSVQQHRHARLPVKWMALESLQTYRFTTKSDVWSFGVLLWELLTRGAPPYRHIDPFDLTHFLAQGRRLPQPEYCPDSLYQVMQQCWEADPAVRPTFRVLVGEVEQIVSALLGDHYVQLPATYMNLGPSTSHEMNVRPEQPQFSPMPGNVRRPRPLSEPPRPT

| SMILES | Fold Selectivity (cMET/RON) |
| --- | --- |
| COc1cc(Nc2nccc(Oc3ccc(NC(=O)c4cnn(-c5ccc(F)cc5)c4C(F)(F)F)cc3F)n2)cc(OC)c1 [Compound 24, N-(4-((2-((3,5-dimethoxyphenyl)amino)pyrimidin-4-yl)oxy)-3-fluorophenyl)-1-(4-fluorophenyl)-5-(trifluoromethyl)-1H-pyrazole-4-carboxamide] | +++ (represents a value greater than 3 up to 50) |
| C=CC(=O)N1CCCC(c2cccc(Nc3nccc(Oc4ccc(NC(=O)c5cnn(-c6ccc(F)cc6)c5C(F)(F)F)cc4F)n3)c2)C1 (centres unmarked) [Compound 38, N-(4-((2-((3-(1-acryloylpiperidin-3-yl)phenyl)amino)pyrimidin-4-yl)oxy)-3-fluorophenyl)-1-(4-fluorophenyl)-5-(trifluoromethyl)-1H-pyrazole-4-carboxamide] | +++ (represents a value greater than 3 up to 50) |
| O=C(Nc1ccc(Oc2ccnc3cc(Br)nn23)c(F)c1)c1cnn(-c2ccc(F)cc2)c1C(F)(F)F [Compound 4, N-(4-((2-bromopyrazolo[1,5-a]pyrimidin-7-yl)oxy)-3-fluorophenyl)-1-(4-fluorophenyl)-5-(trifluoromethyl)-1H-pyrazole-4-carboxamide] | ++ (represents a value greater than 0.5 up to 3) |
| CC(C)Oc1cccc(Nc2nccc(Oc3ccc(NC(=O)c4cnn(-c5ccc(F)cc5)c4C(F)(F)F)cc3F)n2)c1 [Compound 35, N-(3-fluoro-4-((2-((3-isopropoxyphenyl)amino)pyrimidin-4-yl)oxy)phenyl)-1-(4-fluorophenyl)-5-(trifluoromethyl)-1H-pyrazole-4-carboxamide] | +++ (represents a value greater than 3 up to 50) |
| Cn1cc(-c2c(Oc3ccc(NC(=O)c4nnn(-c5ccc(F)cc5)c4C(F)(F)F)cc3F)ccnc2N)cn1 [Compound 6, N-(4-((2-amino-3-(1-methyl-1H-pyrazol-4-yl)pyridin-4-yl)oxy)-3-fluorophenyl)-1-(4-fluorophenyl)-5-(trifluoromethyl)-1H-1,2,3-triazole-4-carboxamide] | ++ (represents a value greater than 0.5 up to 3) |
| Cn1cc(-c2cc3nccc(Oc4ccc(NC(=O)c5cnn(-c6ccc(F)cc6)c5C(F)(F)F)cc4F)n3n2)cn1 [Compound 7, N-(3-fluoro-4-((2-(1-methyl-1H-pyrazol-4-yl)pyrazolo[1,5-a]pyrimidin-7-yl)oxy)phenyl)-1-(4-fluorophenyl)-5-(trifluoromethyl)-1H-pyrazole-4-carboxamide] | +++ (represents a value greater than 3 up to 50) |
| CP(C)(=O)c1cccc(Nc2nccc(Oc3ccc(NC(=O)c4cnn(-c5ccc(F)cc5)c4C(F)(F)F)cc3F)n2)c1 [Compound 26, N-(4-((2-((3-(dimethylphosphoryl)phenyl)amino)pyrimidin-4-yl)oxy)-3-fluorophenyl)-1-(4-fluorophenyl)-5-(trifluoromethyl)-1H-pyrazole-4-carboxamide] | +++ (represents a value greater than 3 up to 50) |
| C=CC(=O)N1CCN(CCc2cccc(Nc3nccc(Oc4ccc(NC(=O)c5cnn(-c6ccc(F)cc6)c5C(F)(F)F)cc4F)n3)c2)CC1 [Compound 43, N-[4-(2-{m-[2-(4-acryloyl-1-piperazinyl)ethyl]phenylamino}-4-pyrimidinyloxy)-3-fluorophenyl]-1-(p-fluorophenyl)-5-(trifluoromethyl)-4-pyrazolecarboxamide] | +++ (represents a value greater than 3 up to 50) |
| CP(C)(=O)c1c(Oc2ccc(NC(=O)c3cnn(-c4ccc(F)cc4)c3C(F)(F)F)cc2F)ccnc1N [Compound 17, N-(4-((2-amino-3-(dimethylphosphoryl)pyridin-4-yl)oxy)-3-fluorophenyl)-1-(4-fluorophenyl)-5-(trifluoromethyl)-1H-pyrazole-4-carboxamide] | +++ (represents a value greater than 3 up to 50) |
| O=C(Nc1ccc(Oc2ccnc(Nc3cccc(N4CCOCC4)c3)n2)c(F)c1)c1cnn(-c2ccc(F)cc2)c1C(F)(F)F [Compound 1, N-(3-fluoro-4-((2-((3-morpholinophenyl)amino)pyrimidin-4-yl)oxy)phenyl)-1-(4-fluorophenyl)-5-(trifluoromethyl)-1H-pyrazole-4-carboxamide] | +++ (represents a value greater than 3 up to 50) |
| CC(C)N1CCN(CCc2cccc(Nc3nccc(Oc4ccc(NC(=O)c5cnn(-c6ccc(F)cc6)c5C(F)(F)F)cc4F)n3)c2)CC1 [Compound 48, N-[3-fluoro-4-(2-{m-[2-(4-isopropyl-1-piperazinyl)ethyl]phenylamino}-4-pyrimidinyloxy)phenyl]-1-(p-fluorophenyl)-5-(trifluoromethyl)-4-pyrazolecarboxamide] | ++ (represents a value greater than 0.5 up to 3) |
| C=CC(=O)NC1CCCC(Nc2nccc(Oc3ccc(NC(=O)c4cnn(-c5ccc(F)cc5)c4C(F)(F)F)cc3F)n2)C1 (single isomer, unassigned) [44 (peak 2), N-(4-((2-((3-acrylamidocyclohexyl)amino)pyrimidin-4-yl)oxy)-3-fluorophenyl)-1-(4-fluorophenyl)-5-(trifluoromethyl)-1H-pyrazole-4-carboxamide] | +++ (represents a value greater than 3 up to 50) |
| C=CC(=O)N1CCN(C(=O)Cc2cccc(Nc3nccc(Oc4ccc(NC(=O)c5cnn(-c6ccc(F)cc6)c5C(F)(F)F)cc4F)n3)c2)CC1 [Compound 50, N-[4-(2-{m-[2-(4-acryloyl-1-piperazinyl)-2-oxoethyl]phenylamino}-4-pyrimidinyloxy)-3-fluorophenyl]-1-(p-fluorophenyl)-5-(trifluoromethyl)-4-pyrazolecarboxamide] | +++ (represents a value greater than 3 up to 50) |
| C=CC(=O)NC1CCCC(Nc2nccc(Oc3ccc(NC(=O)c4cnn(-c5ccc(F)cc5)c4C(F)(F)F)cc3F)n2)C1 (single isomer, unassigned) [44 (peak 1), N-(4-((2-((3-acrylamidocyclohexyl)amino)pyrimidin-4-yl)oxy)-3-fluorophenyl)-1-(4-fluorophenyl)-5-(trifluoromethyl)-1H-pyrazole-4-carboxamide] | +++ (represents a value greater than 3 up to 50) |
| Cn1cnc(-c2cc3nccc(Oc4ccc(NC(=O)c5cnn(-c6ccc(F)cc6)c5C(F)(F)F)cc4F)n3n2)c1 [Compound 8, N-(3-fluoro-4-((2-(1-methyl-1H-imidazol-4-yl)pyrazolo[1,5-a]pyrimidin-7-yl)oxy)phenyl)-1-(4-fluorophenyl)-5-(trifluoromethyl)-1H-pyrazole-4-carboxamide] | +++ (represents a value greater than 3 up to 50) |
| Cn1cc(-c2c(Oc3ccc(NC(=O)c4ccnc(-c5ccc(F)cc5)c4C(F)(F)F)cc3F)ccnc2N)cn1 [Compound 12, N-(4-((2-amino-3-(1-methyl-1H-pyrazol-4-yl)pyridin-4-yl)oxy)-3-fluorophenyl)-2-(4-fluorophenyl)-3-(trifluoromethyl)isonicotinamide] | +++ (represents a value greater than 3 up to 50) |
| O=C(Nc1ccc(Oc2ccnc(Nc3cccc(CCN4CCN(C5CC5)CC4)c3)n2)c(F)c1)c1cnn(-c2ccc(F)cc2)c1C(F)(F)F [Compound 49, N-(4-((2-((3-(2-(4-cyclopropylpiperazin-1-yl)ethyl)phenyl)amino)pyrimidin-4-yl)oxy)-3-fluorophenyl)-1-(4-fluorophenyl)-5-(trifluoromethyl)-1H-pyrazole-4-carboxamide] | ++ (represents a value greater than 0.5 up to 3) |
